Two compounds from patent US10314834B2, “Therapeutic agent or treatment method for Philadelphia chromosome-positive (Ph+) acute lymphocytic leukemia (ALL) having IKZF1 mutation” (UNIVERSITY OF YAMANASHI, priority 2015, dated 2019) can be followed below.

Test [1] relates to Ph+ALL strain KOPN57bi. Briefly: H^3-thymidine uptake method, Ph+ALL strain KOPN57bi. It is filed as cell-based. Conditions: Homo sapiens, 144 h, read-out: % inhibition of H^3-thymidine uptake. An excerpt:
Effect in the combination was recognized from 2 days in the culture, and % inhibition reached to 90% or more on 3 days in the culture.

Test [2] has as its system Ph+ALL cell strain (KOPN57bi). Briefly: Cell turnover by PI staining, flow cytometry. It is filed as cell-based, human. Conditions: LMD 20 μM, IM 0.5 μM, 3 days. Here is the method:
When PI staining is performed under the condition that the cell membrane/nuclear membrane is fixed with a drug and PI can freely bind to intranuclear DNA, staining intensity changes depending on amount of DNA. Thus, cell turnover stop phase (G0/G1 phase, 2N), DNA synthesis phase (S phase, 2N→4N), pre-cell division phase (G2 phase, 4N) and cell division phase (M phase, 4N→2N) can be distinguished each other by using flow cytometry. In addition, when the cell death is induced by apoptosis, a cell fraction that DNA amount decreases by DNA cleavage (less than 2N) from the G0/G1 phase is detected.
On the technique in general: In flow cytometry, cells or beads pass a laser one at a time.

Test [3] relates to Ph+ALL cell strain (KOPN57bi). Briefly: Immunodeficient mice transplanted with Ph+ALL cells, in vivo. Also noted: species or system NOD/SCID/γ null mouse (NOG mouse). Conditions: NOG mouse; LMD 30 mg/kg/day, IM 150 mg/kg/day, PO; two weeks after administration; saline approximately 30%.
Source text: NOD/SCID/γ null mouse (NOG mouse) is widely used for research as immunodeficient mouse capable of efficiently transplanting human hematopoietic stem cells or tumor cells. A mouse transplanted with human leukemia cells is a system that can study therapeutic effect of a drug on human leukemia cells in the mouse body (in vivo). […] The mice were observed over time. Proportion of Ph+ALL cells in mononuclear cell fraction was investigated by using flow cytometry after isolating mononuclear cell fraction from mouse bone marrow blood two weeks after administration and staining with anti-human CD45 antibody binding to human leukemia cells.
The subject of test [4] is Ph+ALL cell strain (KOPN57bi). The test can be described thus: Cell death by Annexin V/propidium iodide (PI) double staining, flow cytometry. Conditions: Homo sapiens, 72 h, read-out: viable cell fraction (Annexin V-, PI-). An excerpt: At an early stage of cell death, specific phospholipids are exposed on the cell membrane. By labeling Annexin V, which strongly binds to the phospholipid, with a fluorescent dye, rate of the early cell death can be detected by using flow cytometry. On the other hand, at a late stage of cell death, cell membrane/nuclear membrane is partially destroyed.

In test [5] the test system is Ph+ALL cell strain (KOPN57bi). The test can be described thus: Apoptosis by active caspase-3 antibody, flow cytometry. It is filed as cell-based, human. Conditions: LMD 20 μM, IM 0.5 μM, 3 days, compared with no addition. An excerpt: After fixation of cell membrane, the cells were stained with anti-active caspase-3 antibodies and positive cells were investigated by using flow cytometry.

The subject of test [6] is Ph+ALL cell strain (KOPN57bi). Briefly: Viable cells by alamar blue method. It is filed as cell-based, human. Conditions: LMD 20 μM, IM 0.5 μM, 3 days.
The test system of test [7] is IKZF1 protein. Briefly: Change of IKZF1 expression by western blotting. It is filed as cell-based, human. Conditions: KOPN57bi; LMD 20 μM, IM 0.5 nM; 24 hours. For orientation: A western blot detects proteins with antibodies after separation by electrophoresis.

A word on the inhibition: it is the share of the control response that was lost under treatment.

Turning to `Nc1cccc2c1CN(C1CCC(=O)NC1=O)C2=O` (racemic) [LMD, (RS)-3-(4-amino-1-oxo-3H-isoindol-2-yl) piperidine-2,6-dione], the inhibition at 20 µM in test [1] is around 80%. In test [2], the S phase fraction result is recorded as “decrease” and the “apoptotic fraction (less than 2N)” value is “mild increase”. Moreover, in test [3], the “proportion of Ph+ALL cells (human CD45 positive) in bone marrow mononuclear cell fraction” value was determined as 2.1%. Moreover, in test [4], the viability at 20 µM is around 60%. In addition, in test [5], the “active caspase-3 positive rate” value is on record as “slightly increased”. In addition, in test [6], the “number of viable cells (alamar blue)” value is on record as “mildly decreased”.
On to `Cc1ccc(NC(=O)c2ccc(CN3CCN(C)CC3)cc2)cc1Nc1nccc(-c2cccnc2)n1` [IM, 4-(4-Methylpiperazin-1-ylmethyl)-N-[4-methyl-3-(4-pyridin-3-ylpyrimidin-2-ylamino)benzamide monomethanesulfonate], for which, in test [7], the “expression of dominant-negative isoform (Ik 6)” value was “No change”. Also, in test [5], the “active caspase-3 positive rate” value is recorded as “slightly increased”. In addition, the “number of viable cells (alamar blue)” value in test [6] is “mildly decreased”.
